Laboratory results: paper PMC7039932, “Development of Relaxin-3 Agonists and Antagonists Based on Grafted Disulfide-Stabilized Scaffolds” (Frontiers in Chemistry, 2020)
Where a SMILES comes first, the peptide text is derived from it. Bridges are numbered along the chain shown (N, C = ends). Where no end group is shown, it is not given here.

Legend:
In vitro serum stability = format: in vitro ADME, human; conditions: for half-life at 2.5 µg/mL: human male pooled serum, 570 μl spiked with 30 μl peptide stock (0.05 μg/μl in H2O), quenched with 0.1 M ammonium acetate pH 3, SPE, LC-MS MRM, one phase decay, at least three replicates, read-out: Half-life in serum (T1/2) (converted)
Method: The in vitro serum stability was determined by peptide spiking, as previously described (Hossain et al., [2015]). Briefly, 570 μl human male pooled serum was spiked with 30 μl peptide stock solution (0.05 μg/μl in H2O). 100 μl samples were taken out at different time points and quenched with 900 μl ammonium acetate (0.1 M, pH 3). Samples were left on ice for 30 min before being extracted using solid phase extraction cartridges (Oasis HLB 3cc, Waters). Eluted samples were then lyophilized and reconstituted in 1% formic acid. The amount of intact peptide is reported relative to the amount of peptide available at timepoint 0 hr. Quantification was carried out using multiple reaction monitoring on a triple-quad LC-MS (API2000, AB Sciex) and the data analyzed using one phase decay in Prism 7.

RXFP3 [1] = biological target: T1, RXFP3 (Homo sapiens, UniProt Q9NSD7); experiment: Inhibition of forskolin-induced cAMP accumulation, pCRE-β-galactosidase reporter, CHO-K1 cells stably expressing RXFP3; format: cell-based; conditions: CHO-K1-RXFP3 cells with pCRE-β-galactosidase reporter; 5 μM forskolin; mean ± SEM, number in parentheses = independent experiments in triplicate
T1 construct: expressed in transfected cells; host or cells: CHO-K1 cells stably expressing RXFP3
T1 sequence (Q9NSD7 1-469): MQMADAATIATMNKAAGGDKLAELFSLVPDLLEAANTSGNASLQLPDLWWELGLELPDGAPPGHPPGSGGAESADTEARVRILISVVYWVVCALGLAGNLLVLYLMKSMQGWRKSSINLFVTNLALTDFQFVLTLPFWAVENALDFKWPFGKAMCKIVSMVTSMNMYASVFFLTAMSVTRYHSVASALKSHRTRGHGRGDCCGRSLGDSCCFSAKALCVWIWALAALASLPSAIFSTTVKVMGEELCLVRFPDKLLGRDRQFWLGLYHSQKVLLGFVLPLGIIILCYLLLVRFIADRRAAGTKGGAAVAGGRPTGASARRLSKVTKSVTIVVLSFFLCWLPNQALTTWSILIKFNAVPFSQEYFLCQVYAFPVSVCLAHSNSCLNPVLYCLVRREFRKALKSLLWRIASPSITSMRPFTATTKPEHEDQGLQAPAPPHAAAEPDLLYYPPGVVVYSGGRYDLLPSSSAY
Method: The affinity and activity of the grafted peptides were determined as previously described (Haugaard-Kedström et al., [2015]). Briefly, for competition binding studies CHO-K1 cells stably expressing RXFP3 were incubated with 5 nM Eu-DTPA-R3 B1-22R and increasing concentrations of peptide analogs. Unlabeled R3 B1-22R was used as reference compound. The europium was detected by the addition of enhancement solution and fluorescence recorded using an excitation of 340 nm and emission reading at 614 nm. For agonists the ability of analogs to inhibit cAMP accumulation were tested in CHO-K1 cells stably expressing RXFP3 transfected with a pCRE-β-galactosidase reporter plasmid. Cells were stimulated with 5 μM forskolin and incubated with increasing concentrations of relaxin-3 analogs as previously described (Shabanpoor et al., [2012]). […] Data are expressed as mean ± SEM and analyzed using Prism 8 (GraphPad).
The binding affinity of the grafted peptides were determined using CHO cells stably expressing RXFP3 by measuring increasing concentrations of the grafted peptides' ability to compete for the binding site with europium labeled R3 B1-22R (Haugaard-Kedström et al., [2015]). Activation was measured by assessing the ability of the analogs to inhibit cAMP accumulation induced by forskolin in a reporter assay, as RXFP3 couples to an inhibitory G-protein.

RXFP3 [2] = biological target: T2, RXFP3 (Homo sapiens, UniProt Q9NSD7); experiment: competition binding with Eu-R3 B1-22R on CHO-K1 cells
T2 chain: T1 sequence (Q9NSD7 1-469)

Molecule: CC[C@H](C)[C@H](NC(=O)[C@H](Cc1ccccc1)NC(=O)[C@H](CCC(=O)O)NC(=O)[C@H](CCCNC(=N)N)NC(=O)CNC(=O)[C@H](CS)NC(=O)[C@H](CC(C)C)NC(=O)[C@H](CCCNC(=N)N)NC(=O)[C@@H](NC(=O)CNC(=O)[C@H](Cc1ccc(O)cc1)NC(=O)[C@@H]1CCCN1C(=O)[C@H](C)NC(=O)[C@H](C)NC(=O)[C@@H](N)CCCNC(=N)N)C(C)C)C(=O)N[C@@H](CCCNC(=N)N)C(=O)N[C@@H](C)C(=O)N[C@H](C(=O)N[C@H](C(=O)N[C@@H](Cc1ccccc1)C(=O)N[C@H](C(=O)N[C@@H](CS)C(=O)NCC(=O)NCC(=O)N[C@@H](CO)C(=O)N[C@@H](CCCNC(=N)N)C(=O)N[C@@H](Cc1c[nH]c2ccccc12)C(=O)O)[C@@H](C)O)[C@@H](C)CC)C(C)C [Analog 2, reference compound]
- half-life at 2.5 µg/mL (In vitro serum stability): 0.0517 h

Molecule: CC[C@H](C)[C@@H]1NC(=O)[C@H](C)NC(=O)[C@@H]2CSSC[C@H](N)C(=O)N[C@@H](CC(N)=O)C(=O)N[C@@H](CSSC[C@@H](C(=O)N[C@H](C(=O)N[C@H](C(=O)N[C@@H](Cc3ccccc3)C(=O)N[C@H](C(=O)N[C@@H](CO)C(=O)NCC(=O)NCC(=O)N[C@@H](CO)C(=O)N[C@@H](CCCNC(=N)N)C(=O)N[C@@H](Cc3c[nH]c4ccccc34)C(=O)O)[C@@H](C)O)[C@@H](C)CC)C(C)C)NC(=O)[C@H](CCCNC(=N)N)NC1=O)C(=O)N[C@@H](CCCCN)C(=O)N[C@@H](C)C(=O)N1CCC[C@H]1C(=O)N[C@@H](CCC(=O)O)C(=O)N[C@@H]([C@@H](C)O)C(=O)N[C@@H](C)C(=O)N[C@@H](CCCNC(=N)N)C(=O)N2 [Analog 3] (H-CNCKAPETARCAIRCVIFTSGGSRW-OH; disulfide 1-11, 3-15)
- half-life at 2.5 µg/mL (In vitro serum stability): 12.8 h
- Fold improvement in serum stability versus linear counterpart (In vitro serum stability; human serum T1/2 of grafted peptide relative to linear R3 B1-27 or R3 B1-22R): 250 fold

Molecule: CC[C@H](C)[C@@H]1NC(=O)[C@H](C)NC(=O)[C@@H]2CSSC[C@H](N)C(=O)N[C@@H](CC(N)=O)C(=O)N[C@@H](CSSC[C@@H](C(=O)N[C@H](C(=O)N[C@H](C(=O)N[C@@H](Cc3ccccc3)C(=O)N[C@H](C(=O)N[C@@H](CO)C(=O)N[C@@H](CCCNC(=N)N)C(N)=O)[C@@H](C)O)[C@@H](C)CC)C(C)C)NC(=O)[C@H](CCCNC(=N)N)NC1=O)C(=O)N[C@@H](CCCCN)C(=O)N[C@@H](C)C(=O)N1CCC[C@H]1C(=O)N[C@@H](CCC(=O)O)C(=O)N[C@@H]([C@@H](C)O)C(=O)N[C@@H](C)C(=O)N[C@@H](CCCNC(=N)N)C(=O)N2 [Analog 9] (H-CNCKAPETARCAIRCVIFTSR-NH2; disulfide 1-11, 3-15)
- cAMP activity pEC50 ± SEM (RXFP3 [1]): No activity
- half-life at 2.5 µg/mL (In vitro serum stability): 6.6 h

Molecule: RAAPYGVRLSGREFIRAVIFTSR-NH2 [Analog 8, reference compound]
- half-life at 2.5 µg/mL (In vitro serum stability): 0.0667 h

Molecule: RAAPYGVRLSGREFIRAVIFTSR-NH2 [Analog 8]
- cAMP activity pEC50 ± SEM (RXFP3 [1]): No activity

B1: relaxin-3 (R3 acid, analog 1) (protein)
chain 1: RAAPYGVRLCGREFIRAVIFTCGGSRW
chain 2: DVLAGLSSSCCKWGCSKSEISSLC
- Ki (RXFP3 [2]): 20.4 nM

Molecule: MARYMLLLLLAVWVLTGELWPGAEARA [relaxin-3 B-chain (R3 B1-27, analog 2) B-chain 1-27]
- Ki (RXFP3 [2]): 1230 nM
